Patent US20230219904A1 (SYNGENTA CROP PROTECTION AG, priority 2020, published 2023)

How the values were obtained:
Type in all cases: in vivo
Conditions in all cases: evaluated after 13 days
[1] = system: Echinochloa crus-galh (ECHCG); experiment: Post-emergence herbicidal glasshouse test (Table B1)
Procedure, shortened: (§1)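 Glasshouse pot test: compounds sprayed pre-emergence (day 1) or post-emergence (day 8) at 500 g/h unless stated. Evaluation at 13 days as percentage damage, reported on a five-point scale where 5 means 80-100%.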

[2] = system: Amaranthus retoflexus (AMARE); experiment: as above
Procedure, shortened: as §1

Setaria faberi (SETFA) [3] = experiment: as above
Procedure, shortened: as §1

[4] = system: Abutilon theophrasti (ABUTH); experiment: as above
Procedure, shortened: as §1

[5] = system: Ipomoea hederacea (IPOHE); experiment: as above
Procedure, shortened: as §1

[6] = system: Echinochloa crus-galh (ECHCG); experiment: Pre-emergence herbicidal glasshouse test (Table B1)
Procedure, shortened: as §1

[7] = system: Amaranthus retoflexus (AMARE); experiment: as above
Procedure, shortened: as §1

Setaria faberi (SETFA) [8] = experiment: as above
Procedure, shortened: as §1

[9] = system: Abutilon theophrasti (ABUTH); experiment: as above
Procedure, shortened: as §1

[10] = system: Ipomoea hederacea (IPOHE); experiment: as above
Procedure, shortened: as §1

Row | SMILES | POST Application ECHCG, percentage damage on five-point scale ([1]; applied at 500 g/h) | POST Application AMARE, percentage damage on five-point scale ([2]; applied at 500 g/h) | POST Application SETFA, percentage damage on five-point scale (Setaria faberi (SETFA) [3]; applied at 500 g/h) | POST Application ABUTH, percentage damage on five-point scale ([4]; applied at 500 g/h) | POST Application IPOHE, percentage damage on five-point scale ([5]; applied at 500 g/h) | PRE Application ECHCG, percentage damage on five-point scale ([6]; applied at 500 g/h) | PRE Application AMARE, percentage damage on five-point scale ([7]; applied at 500 g/h) | PRE Application SETFA, percentage damage on five-point scale (Setaria faberi (SETFA) [8]; applied at 500 g/h) | PRE Application ABUTH, percentage damage on five-point scale ([9]; applied at 500 g/h) | PRE Application IPOHE, percentage damage on five-point scale ([10]; applied) | POST Application ECHCG, percentage damage on five-point scale ([1]; applied at 125 g/ha) | POST Application AMARE, percentage damage on five-point scale ([2]; applied at 125 g/ha) | POST Application SETFA, percentage damage on five-point scale (Setaria faberi (SETFA) [3]; applied at 125 g/ha) | POST Application ABUTH, percentage damage on five-point scale ([4]; applied at 125 g/ha) | POST Application IPOHE, percentage damage on five-point scale ([5]; applied at 125 g/ha) | PRE Application ECHCG, percentage damage on five-point scale ([6]; applied at 125 g/ha) | PRE Application AMARE, percentage damage on five-point scale ([7]; applied at 125 g/ha) | PRE Application SETFA, percentage damage on five-point scale (Setaria faberi (SETFA) [8]; applied at 125 g/ha) | PRE Application ABUTH, percentage damage on five-point scale ([9]; applied at 125 g/ha) | PRE Application IPOHE, percentage damage on five-point scale ([10]; applied at 125 g/ha)
1 | CC(C)CC(=O)Nc1c(OC(F)(F)F)ccc(C(=O)Nc2nnnn2C)c1Cl [Compound 1.008] | 5 (5=80-100%) | 5 (5=80-100%) | 5 (5=80-100%) | 5 (5=80-100%) | 5 (5=80-100%) | 5 (5=80-100%) | 5 (5=80-100%) | 4 (4=60-79%) | 5 (5=80-100%) | 3 (3=40-59%) | – | – | – | – | – | – | – | – | – | –
2 | Cn1nnnc1NC(=O)c1ccc(OC(F)F)c(NC(=O)CC2CC2)c1Cl [Compound 1.036] | – | – | – | – | – | – | – | – | – | – | 5 (5=80-100%) | 5 (5=80-100%) | 5 (5=80-100%) | 5 (5=80-100%) | 4 (4=60-79%) | 5 (5=80-100%) | 5 (5=80-100%) | 5 (5=80-100%) | 5 (5=80-100%) | 4 (4=60-79%)
3 | CCC(=O)Nc1c(OC(F)(F)F)ccc(C(=O)Nc2nnnn2CC)c1Cl [Compound 1.119] | 5 (5=80-100%) | 5 (5=80-100%) | 5 (5=80-100%) | 5 (5=80-100%) | 5 (5=80-100%) | 5 (5=80-100%) | 5 (5=80-100%) | 2 (2=20-39%) | 5 (5=80-100%) | 4 (4=60-79%) | – | – | – | – | – | – | – | – | – | –
4 | Cn1nnnc1NC(=O)c1ccc(OC(F)F)c(NC(=O)c2ncc(F)cc2F)c1Cl [Compound 1.089] | – | – | – | – | – | – | – | – | – | – | 2 (2=20-39%) | 4 (4=60-79%) | 4 (4=60-79%) | 3 (3=40-59%) | 3 (3=40-59%) | – | 5 (5=80-100%) | 3 (3=40-59%) | 2 (2=20-39%) | 3 (3=40-59%)
5 | CC(=O)N(C)c1c(OC(F)(F)F)ccc(C(=O)Nc2nnnn2C)c1Cl [Compound 1.003] | 5 (5=80-100%) | 5 (5=80-100%) | – | 5 (5=80-100%) | 5 (5=80-100%) | 5 (5=80-100%) | 5 (5=80-100%) | 5 (5=80-100%) | 5 (5=80-100%) | 1 (1=0-19%) | – | – | – | – | – | – | – | – | – | –
6 | CCCn1nnnc1NC(=O)c1ccc(OC(F)(F)F)c(NC(=O)c2ccccn2)c1Cl [Compound 1.132] | 5 (5=80-100%) | 5 (5=80-100%) | 5 (5=80-100%) | 5 (5=80-100%) | 5 (5=80-100%) | 3 (3=40-59%) | 5 (5=80-100%) | 1 (1=0-19%) | 4 (4=60-79%) | 4 (4=60-79%) | – | – | – | – | – | – | – | – | – | –
7 | CCC(C)C(=O)Nc1c(OC(F)(F)F)ccc(C(=O)Nc2nnnn2C)c1Cl (stereo not shown) [Compound 1.055] | – | – | – | – | – | – | – | – | – | – | 5 (5=80-100%) | 5 (5=80-100%) | 5 (5=80-100%) | 5 (5=80-100%) | 4 (4=60-79%) | 5 (5=80-100%) | 5 (5=80-100%) | – | 5 (5=80-100%) | 4 (4=60-79%)
8 | Cc1ncc(C(=O)Nc2c(OC(F)(F)F)ccc(C(=O)Nc3nnnn3C)c2Cl)s1 [Compound 1.010] | 5 (5=80-100%) | – | 5 (5=80-100%) | 5 (5=80-100%) | 5 (5=80-100%) | 1 (1=0-19%) | 5 (5=80-100%) | 2 (2=20-39%) | 5 (5=80-100%) | 2 (2=20-39%) | – | – | – | – | – | – | – | – | – | –
9 | Cn1nnnc1NC(=O)c1ccc(OC(F)F)c(NC(=O)c2nc(Cl)ccc2Cl)c1Cl [Compound 1.088] | – | – | – | – | – | – | – | – | – | – | 3 (3=40-59%) | 4 (4=60-79%) | 4 (4=60-79%) | 4 (4=60-79%) | 4 (4=60-79%) | – | 5 (5=80-100%) | 5 (5=80-100%) | 4 (4=60-79%) | 4 (4=60-79%)
10 | COc1cccc(C(=O)Nc2c(OC(F)F)ccc(C(=O)Nc3nnnn3C)c2Cl)n1 [Compound 1.085] | – | – | – | – | – | – | – | – | – | – | 4 (4=60-79%) | 4 (4=60-79%) | 4 (4=60-79%) | 4 (4=60-79%) | 4 (4=60-79%) | – | 4 (4=60-79%) | 3 (3=40-59%) | 5 (5=80-100%) | 3 (3=40-59%)
11 | CCn1nnnc1NC(=O)c1ccc(OC(F)(F)F)c(NC(=O)C(C)(C)C)c1Cl [Compound 1.106] | 5 (5=80-100%) | 5 (5=80-100%) | 5 (5=80-100%) | 5 (5=80-100%) | 5 (5=80-100%) | 5 (5=80-100%) | 5 (5=80-100%) | 5 (5=80-100%) | 5 (5=80-100%) | – | – | – | – | – | – | – | – | – | – | –
12 | Cn1nnnc1NC(=O)c1ccc(OC(F)(F)F)c(NC(=O)C2(F)CC2)c1Cl [Compound 1.054] | – | – | – | – | – | – | – | – | – | – | – | 5 (5=80-100%) | 5 (5=80-100%) | 5 (5=80-100%) | 5 (5=80-100%) | 5 (5=80-100%) | 5 (5=80-100%) | 5 (5=80-100%) | 5 (5=80-100%) | 4 (4=60-79%)
13 | Cn1nnnc1NC(=O)c1ccc(OC(F)F)c(NC(=O)c2cccc(Cl)n2)c1Cl [Compound 1.083] | – | – | – | – | – | – | – | – | – | – | 2 (2=20-39%) | 4 (4=60-79%) | 4 (4=60-79%) | 4 (4=60-79%) | 4 (4=60-79%) | – | 5 (5=80-100%) | 4 (4=60-79%) | 5 (5=80-100%) | 3 (3=40-59%)
14 | Cn1nnnc1NC(=O)c1ccc(OC(F)F)c(NC(=O)c2cc(Cl)ccn2)c1Cl [Compound 1.086] | – | – | – | – | – | – | – | – | – | – | 4 (4=60-79%) | 5 (5=80-100%) | 4 (4=60-79%) | 4 (4=60-79%) | 5 (5=80-100%) | – | 5 (5=80-100%) | 4 (4=60-79%) | 5 (5=80-100%) | 4 (4=60-79%)
